Laboratory results: US20140212478A1, “METHOD FOR PREVENTING AND/OR TREATING PERIODONTAL DISEASE” (priority 2008, published 2014)
Entries after “also recorded” stand apart in the source; their conditions may differ.

System: dental root-periodontal tissue of excised first molar (lower jaw)
Assay: Effect on dental root-periodontal tissue formation: honokiol-impregnated agarose bead embedded into dental pulp of excised mouse first molar, graft culture under kidney capsule of host mice
Format: in vivo, C57BL/6 mice
From the text: Dulbecco' phosphate buffered saline (hereinbelow, it is some times referred to as “D-PBS”) was purchased from Dainippon Pharmaceuticals Inc. Affi-Gel agarose beads (Affigel heparin Cat. No.: 15306173) were purchased from Bio-Rad Laboratories, Inc. Five days age of C57BL/6 mice were purchased from Sankyo Labo Service Corporation. As host mice, 10 to 15 weeks age of C57BL/6 mice (female) were purchased from Sankyo Labo Service Corporation, and used two per group. Since it was know that a kidney and an anterior chamber of eye hardly have immune response among organs in adult mice, it was not necessary to especially use nude mice in graft culture.
Honokiol-impregnated agarose beads were prepared as follows. Honokiol was diluted to the concentration of 10 μM by using D-PBS. The agarose beads were washed with D-PBS.
After washing, four agarose beads were placed in the 1.5 mL tube and 100 μL of the honokiol solution was added into it. Then, the tube was incubated at room temperature for 45 minutes to impregnated honokiol into the agarose beads. As mentioned above, absorptive beads including heparin honokiol impregnation (hereinbelow, it is sometimes referred to as “honokiol-impregnated agarose beads”) were prepared.
Alternatively, another four agarose beads were placed in the 1.5 mL tube and 100 μL of D-PBS was added into it to prepare D-PBS-impregnated agarose beads were prepared, and they were used as negative control.
Five days age of […] mice, where their dental root-periodontal tissue was just before formed, were anesthetized and sacrificed by decapitation. After excised lower jaw of them, the first molars in the lower jaw were excised with dental follicles. One of the honokiol-impregnated agarose beads prepared in the (5-1) was embedded into the dental pulp of the excised teeth, the first molar in the lower jaw.
As the negative control, one of the D-PBS-impregnated agarose beads prepared was embedded into the dental pulp of another excised teeth, the first molar in the lower jaw.
The excised teeth under which the honokiol-impregnated agarose bead was embedded, and that under which the D-PBS impregnated agarose bead was embedded, were respectively grafted under capsule of kidney of the host mice. The host mice were bred under the condition of 12 hours lighting, at room temperature, 25° C., free taking feed and water for three weeks.
After three weeks from grafting of the excised tooth, the host mice were sacrificed by dislocation of cervical vertebrae to excise the kidney to recover the cultured excised tooth (grafted tooth).
Formation of dental root-periodontal tissue (extension), coat of the dental root, and bone of the grafted tooth, which was recovered, were observed under stereoscopic microscope, and then subjected to tomography by using micro CT. […]

Substance: honokiol
- extension of dental root (dental root-periodontal tissue formation) (agarose bead impregnated with 10 μM honokiol in D-PBS, embedded into dental pulp, three weeks graft culture under kidney capsule, stereoscopic microscope and micro CT, compared to D-PBS negative control): prominent extension of dental root; also recorded: excellent promotion effect for dental root-periodontal tissue formation (extension)
- bone formation around the newly formed dental root (agarose bead impregnated with 10 μM honokiol, embedded into dental pulp, three weeks graft culture under kidney capsule, all graft samples with dental root extension): bone formation around the newly formed dental root were also observed
- periodontal ligament-like structure between the dental root and the bone formed (agarose bead impregnated with 10 μM honokiol, embedded into dental pulp, three weeks graft culture, soft X-ray / micro CT section): structure similar to periodontal ligamentous band was observed
- promotion effect for surrounding tissue (periodontal ligament and alveolar bone), overall conclusion (pharmaceutical preparation comprising honokiol as the active ingredient, conclusion from graft culture results): promotion effect for surrounding tissue such as the periodontal ligament and alveolar bone
